Values of other authors as cited in patent US8636973B2, “Method of producing pharmacologically pure crystals” (Biosyn Arzneimittel GmbH, priority 2010, dated 2014).

Legend:
[1] = Janitzki, solubility studies
[2] = 14° C.

SMILES | temperature at which the form is stable / exists [1] | solubility [2] [kg/l H2O]
O.O.O.O.O.O.O.O.O=[Se]([O-])[O-].[Na+].[Na+] [Na2SeO3×8 H2O, Na2SeO3×8H2O] | up to −8.7 °C | 
O=[Se]=O [SeO2, selenium dioxide] |  | 0.384
